Measured values published in US8637679B2, “Process for the isolation of organic compounds useful for the treatment of cancer” (Council of Scientific and Industrial Research, priority 2011, dated 2014).
“Also recorded” adds a separate entry of the source. Like-named read-outs stand apart in the source and are kept apart here.

How the values were obtained:
ME180 [1] = test: MTT cell viability assay, ME180; type: cell-based; settings: Homo sapiens, ME-180, ME180, 48 hr
Procedure: (§1) Human cervical cancer cell lines (HeLa, ME-180 and SiHa), brain tumor cell lines (U87MG, U373MG, U87MG EGFRvIII, T98G, A172 and LN229), lymphoid leukemia (MOLT-3, MOLT-4, REH and CEMC-7), myloid leukemia (K562), pancreatic cancer (MIAPaCa-2, AsPC-1, Panc-1 and Panc 10.05), lung cancer (A549) and colon cancer (HCT116 and SW480) cell lines from American Type Culture Collection, Manassas, Va., USA were grown in IMDM or RPMI (cell specific) Medium supplemented with 10% fetal bovine serum and 1% antibiotic-antimycotic. Cells were cultured in 37° C. in an atmosphere of 5% CO2.
(§2) Viability of cancer cell lines after treatment as at the indicated times was determined by MTT assay. Briefly, 10,000 cells were plated in triplicate in 96 well plates and incubated for 24 and 48 hours in complete media in presence of varying dose of mahanine (0-50 μM). 100 ug MTT was added in each well. Incubate the plate for 1-4 hours at 37° C. and humidified 5% CO2 atmosphere. Absorbance was recorded at 550 nm with 96 well plate readers.

NCIH23 = test: MTT cell viability assay, NCIH23; type: cell-based, human; settings: Homo sapiens, NCI-H23; NCIH23, 48 hrs
Procedure: as §2

Vero = test: MTT cell viability assay, Vero normal cells; type: cell-based, African monkey
U87MGEGFRvIII = test: MTT cell viability assay, U87MGEGFRvIII; type: cell-based; settings: Homo sapiens, 48 hrs treatment
Procedure: as §1, §2

ME180 [2] = test: 7-AAD flow cytometric apoptosis, ME180; type: cell-based, human; settings: ME180, 25 μM mahanine
Procedure: (§3) U87MG, LN229, HeLa, SiHa and ME180 (1×10^6 cells) cells were cultured in 6-well plates in presence or absence of Mahanine (25 μM) for 24 hrs. Cells were washed in PBS, incubated with 7-Aminoactinomycin D (7-AAD) at 4° C. for 20 min and processed. Data acquisition was done on a FACSCalibur flow cytometer (BD) at excitation wavelength at 488 nm and emission wavelength at 647 nm and analyzed with CellQuestPro software.

HCT116 = test: MTT cell viability assay, HCT116; type: cell-based, human; settings: Homo sapiens, HCT-116; HCT116, 48 hrs
Procedure: as §1, §2

SiHa = test: 7-AAD flow cytometric apoptosis, SiHa; type: cell-based, human; settings: 25 μM mahanine
Procedure: as §3

[3] = system: Hsp90 client proteins (Akt); test: Western blot of Hsp90 client proteins; type: cell-based, human; settings: cervical and pancreatic cancer cell lines, 24 hrs
Procedure: Different human cancer cells (1×10^6 cells) were incubated with complete medium alone or with different dose of Mahanine (10-20 μM) as indicated. Cells were detached using trypsin-EDTA solution. They were collected by centrifugation at 1500 g for 10 mins and lysed by sonication. Aliquots containing 60 μg total cellular protein were separated by 10% SDS-PAGE and transferred to nitrocellulose membrane (MILIPORE, Bedford, Mass., USA). Membrane was blocked with blocking buffer for 1 hour at room temperature and probed with desired primary antibody Hsp90, Hsp70, Hsp40, p23, HOP, Cdc37, B-Raf, Stat-3, Bcl-xl, Akt, PARP, β-actin (Cell signaling technology, USA) and caspase-3 (Santa Cruz, USA), caspase9, cytochrome c (cell signaling technology, USA) for overnight at 4° C. followed by HRP conjugated secondary antibody and detected by ECL. For the detection of association of the Hsp90-Cdc37, Hsp90-p23 and Hsp90-HOP, total cell lysate (400 μg) was treated with anti-Hsp-90 antibody (1:100 dilutions) and incubated overnight at 4° C. The chaperonic complex was resolved by SDS-PAGE (10%), transferred and probed separately with anti-Cdc37, anti-HOP, anti-p23 and anti-Hsp-90 antibodies. In the few immunoprecipitation experiments anti-Cdc37 used as precipitating antibody and Hsp90 was used as detection antibody. […]

cancer cell lines = test: MTT assay, pooled cancer cell lines of several cancer types; type: cell-based, human
Procedure: as §1, §2

WI-38 = test: MTT cell viability assay, WI-38 normal cells; type: cell-based, human
Procedure: as §2

Storage stability = type: physicochemical
HeLa = test: 7-AAD flow cytometric apoptosis, HeLa; type: cell-based, human; settings: 25 μM mahanine
Procedure: as §3

Panc1 = test: MTT cell viability assay, Panc1; type: cell-based, human; settings: Homo sapiens, PANC-1; Panc1, 48 hrs
Procedure: as §1, §2

MIAPaCa-2 = test: In vitro colony formation on matrigel; type: cell-based, human
K562 = test: MTT cell viability assay, K562; type: cell-based, human; settings: Homo sapiens; K562, 48 hrs
Procedure: as §1, §2

A549 = test: MTT cell viability assay, A549; type: cell-based, human; settings: Homo sapiens; A549, 48 hrs
Procedure: as §1, §2

Hsp90α = Hsp90α (Homo sapiens, UniProt P07900); test: γ-ATP sepharose binding assay, Hsp90α; settings: mahanine at 50 and 100 μM
Procedure: 5 μg of purified Hsp90α and Hsp90β were pre-incubated separately on ice with 200 μL incubation buffer (10 mM Tris-Hcl, 50 mM KCl, 5 mM MgCl2, 2 mM DTT, 20 mM Na2MoO4, 0.01% NP40, pH 7.5) containing mahanine or 17-AAG and incubated for 30 mins on ice. After the incubation, 25 μL pre-equilibrated γ-phosphate ATP sepharose added and again incubated at 37° C. with frequent agitation.
Sepharose subsequently washed and analyzed by SDS-PAGE. Then the blot was probed with anti Hsp90 antibody and developed by ECL.

U87MG = test: MTT cell viability assay, U87MG; type: cell-based, human; settings: Homo sapiens, U-87 MG, 48 hrs
Procedure: as §1, §2

In vivo toxicity in mice = test: In vivo toxicity in mice
Procedure: Animals were examined for 1 month after the administration of acute toxic dose (150 mg/kg/day); there was no change in behavior, feeding habit, total body mass and in number of biochemical and haematological parameters.

CC(C)=CCCC1(C)C=Cc2c(c(C)cc3c2[nH]c2cc(O)ccc23)O1 (centres unmarked) [Mahanine, mahanine]
IC50 (ME180 [1]): 14.6 µM | IC50 (NCIH23): 7.08 ± 0.1 µM | IC50 (Vero; Primates, Vero normal cell line, 48 hrs): > 100 µM | sensitivity of Vero cells (Vero; proliferating normal cells, in vitro): less sensitive | IC50 (U87MGEGFRvIII): ~14 µM | apoptosis (7-AAD+ve cells) (ME180 [2]): 80.5% | IC50 (HCT116): 13.5 ± 0.8 µM | apoptosis (7-AAD+ve cells) (SiHa): 97.13% | dose enough to start significant downregulation of Akt level [3]: 15 µM | IC50 (cancer cell lines; Homo sapiens, Pancreatic cancer cell, 48 h, range, 48 hr treatment, read-out: IC50, glioma, cervical and pancreatic cancer cell lines): 11 to 14 µM | inhibition at 20 µM (cancer cell lines; Homo sapiens, mahanine at 20 μM, read-out: inhibition of cancer cells): 75 to 85% | IC50 (cancer cell lines; range over glioma and cervical cancer cell lines, 48 hr, listed as 1b, read-out: IC50, glioma and cervical cancer cells): 30 to 50 µM | IC50 (cancer cell lines; range over glioma and cervical cancer cell lines, 48 hr, read-out: IC50, glioma and cervical cancer cells): 12 to 17 µM | IC50 (WI-38; Homo sapiens, WI-38 normal cell line, 48 hrs): > 65 µM | sensitivity of WI-38 cells (WI-38; normal human lung fibroblast cells, in vitro): less sensitive; also recorded: minimum sensitivity | stable storage time (Storage stability; dissolved in ethanol, −20° C.): > 6 months | stability at room temperature (Storage stability; purified compound): stable in room temperature | apoptosis (7-AAD+ve cells) (HeLa): 92.28% | IC50 (Panc1): 16.5 ± 0.2 µM | colony formation (MIAPaCa-2; 15 μM, within 24 hrs): absolutely inhibited | colony formation (MIAPaCa-2; 20 μM, after 72 hrs): could not colonize | inhibition at 10 µM (MIAPaCa-2; Homo sapiens, MIA PaCa-2, 10 μM, within 24 hrs): ~20% | IC50 (K562): 13 ± 1.1 µM | IC50 (A549): 12.8 ± 1.1 µM | effect on ATP binding to purified Hsp90 (Hsp90α): could not reduce | IC50 (U87MG): 13.4 ± 0.4 µM | Creatinine (In vivo toxicity in mice; mouse, in vivo): 3.72 mg/dL | Hb (In vivo toxicity in mice; mouse, in vivo): 13.64 gm/dl | SGOT (In vivo toxicity in mice; mouse, in vivo): 174.0 Unit/ml | SGPT (In vivo toxicity in mice; mouse, in vivo): 34.7 Unit/ml | Urea (In vivo toxicity in mice; mouse, in vivo): 48.6 mg/dL | tolerated dose (In vivo toxicity in mice; normal Balb/c mice, consecutive 20 days): 150 mg/kg/day
